Non-standard residues stand in square brackets, D forms with d. Residues, ends and D or L forms follow the SMILES beside them. *: point of attachment. Boc = CC(C)(C)OC(=O)*; OBn = c1ccc(CO*)cc1; For = O=C*

T1 sequence (P30547 whole entry): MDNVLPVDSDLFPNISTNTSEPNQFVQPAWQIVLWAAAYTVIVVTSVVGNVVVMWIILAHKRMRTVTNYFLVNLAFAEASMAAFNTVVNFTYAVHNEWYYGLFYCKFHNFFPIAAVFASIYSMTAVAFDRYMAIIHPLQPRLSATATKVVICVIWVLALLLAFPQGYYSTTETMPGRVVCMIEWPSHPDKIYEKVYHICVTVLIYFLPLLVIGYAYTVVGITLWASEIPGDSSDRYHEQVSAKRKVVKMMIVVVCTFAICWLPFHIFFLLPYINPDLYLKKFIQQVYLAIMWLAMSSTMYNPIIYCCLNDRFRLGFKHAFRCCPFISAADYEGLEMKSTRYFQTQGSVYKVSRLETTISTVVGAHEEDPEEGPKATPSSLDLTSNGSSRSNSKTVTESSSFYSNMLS

The assay addresses T1, Substance P receptor (Cavia porcellus, UniProt P30547).
T1 construct: from tissue; host or cells: guinea pig (male Hartley) trachea and lung, crude membrane fraction
The assay is described as follows: 3H-Substance P receptor binding to guinea pig crude lung membrane preparation. Conditions: test compound 1 μg/ml; 3H-substance P 1 nM; guinea pig crude lung membrane fraction; 4° C., 30 minutes. How it is done:
1. ^3 H-Substance P receptor binding
(a) Crude lung membrane preparation
Male Hartley strain guinea pigs were sacrificed by decapitation. The trachea and lung were removed and homogenized in buffer (0.25M sucrose, 50 mM Tris-HCl pH 7.5, 0.1 mM EDTA) by using Polytoron (Kinematica). The homogenate was centrifuged (1000 xg, 10 min) to remove tissue clumps and the supernatant was centrifuges (14000 xg 20 min) to yield pellets. The pellets were resuspended in buffer (5 mM Tris-HCl pH 7.5), homogenized with a teflon homogenizer and centrifuged (14000 xg, 20 min) to yield pellets which were referred to as crude membrane fractions. The obtained pellets were stored at -70° C. until use.
(b) ^3 H-Substance P binding to preparative membrane
Frozen crude membrane fractions were thawed and resuspended in Medium 1 (50 mM Tris-HCl pH 7.5, 5 mM MnCl2, 0.02% BSA, 2 μg/ml chymostatin, 4 μg/ml leupeptin, 40 μg/ml bacitracin.) ^3 H-substance P (1 nM) was incubated with 100 μl of the membrane preparation in Medium 1 at 4° C. for 30 minutes in a final volume of 500 µl. At the end of the incubation period, reaction mixture was quickly filtered over a Whatman GF/B glass filter (pretreated with 0.1% polyethylene imine for 3 hours prior to use) under aspiration. The filters were then washed four times with 5 ml of the buffer (50 mM Tris-HCl, pH 7.5). The radioactivity was counted in 5 ml of Aquazol-2 in Packerd scintillation counter (Packerd TRI-CARB 4530).
As to `CN(C)C(=O)CC[C@H](NC(=O)OC(C)(C)C)C(=O)N[C@H](Cc1cn(C=O)c2ccccc12)C(=O)N[C@@H](Cc1ccccc1)C(=O)OCc1ccccc1` [Test Compound (f), Boc-Glu(NMe2)-D-Trp(CHO)-Phe-OBzl] (Boc-Glu(NMe2)-[dW](For)-Phe-OBn), the inhibition at 1 µg/mL was 100%.

As to “Z-Gln-D-Trp(CHO) -Phe-OBzl [Test Compound (c)]”, the “Inhibition (%)” value came out at 93%.

In turn, `C[C@@H](O)[C@H](NC(=O)OC(C)(C)C)C(=O)N[C@H](Cc1cn(C=O)c2ccccc12)C(=O)N[C@@H](Cc1ccccc1)C(=O)N(C)Cc1ccccc1` [Test Compound (i), Boc-Thr-D-Trp(CHO)-Phe-NMeBzl] showed an inhibition at 1 µg/mL of 100%.

Turning to `CC(=O)N[C@H](C(=O)N[C@H](Cc1cn(C=O)c2ccccc12)C(=O)N[C@@H](Cc1ccccc1)C(=O)N(C)Cc1ccccc1)[C@@H](C)O` [Test Compound (k), Ac-Thr-D-Trp(CHO)-Phe-NMeBzl], at 1 µg/mL the inhibition was 100%.

`CC(C)(C)OC(=O)N[C@@H](CCC(N)=O)C(=O)N[C@H](Cc1cn(C=O)c2ccccc12)C(=O)N[C@@H](Cc1ccccc1)C(=O)OCc1ccccc1` [Test Compound (a), Boc-Gln-D-Trp(CHO)-Phe-OBzl] (Boc-Gln-[dW](For)-Phe-OBn) gave an inhibition at 1 µg/mL of 100%.

Compound `CC(=O)N[C@@H](CCC(=O)N(C)C)C(=O)N[C@H](Cc1cn(C=O)c2ccccc12)C(=O)N[C@@H](Cc1ccccc1)C(=O)N(C)Cc1ccccc1` [Test Compound (l), Ac-Glu(NMe2)-D-Trp(CHO)-Phe-NMeBzl] displayed an inhibition at 1 µg/mL of 100%.

`CN(C)C(=O)CC[C@H](NC(=O)OC(C)(C)C)C(=O)N[C@H](Cc1cn(C=O)c2ccccc12)C(=O)N[C@@H](Cc1ccccc1)C(=O)N(C)Cc1ccccc1` [Test Compound (j), Boc-Glu(NMe2)-D-Trp(CHO)-Phe-NMeBzl] gave an inhibition at 1 µg/mL of 100%.

Regarding `CC(=O)N[C@@H](CCC(N)=O)C(=O)N[C@H](Cc1cn(C=O)c2ccccc12)C(=O)N[C@@H](Cc1ccccc1)C(=O)OCc1ccccc1` [Test Compound (b), Ac-Gln-D-Trp(CHO)-Phe-OBzl] (Ac-Gln-[dW](For)-Phe-OBn), the inhibition at 1 µg/mL came to 100%.

`CN(Cc1ccccc1)C(=O)[C@H](Cc1ccccc1)NC(=O)[C@@H](Cc1cn(C=O)c2ccccc12)NC(=O)[C@H](CCC(N)=O)NC(=O)OC(C)(C)C` [Test Compound (h), Boc-Gln-D-Trp(CHO)-Phe-NMeBzl] yielded an inhibition at 1 µg/mL of 100%.

As to `CC(C)(C)OC(=O)N[C@@H](CO)C(=O)N[C@H](Cc1cn(C=O)c2ccccc12)C(=O)N[C@@H](Cc1ccccc1)C(=O)OCc1ccccc1` [Test Compound (e), Boc-Ser-D-Trp(CHO)-Phe-OBzl] (Boc-Ser-[dW](For)-Phe-OBn), the inhibition at 1 µg/mL is 99%.

`CC(C)(C)OC(=O)N[C@@H](CC(N)=O)C(=O)N[C@H](Cc1cn(C=O)c2ccccc12)C(=O)N[C@@H](Cc1ccccc1)C(=O)OCc1ccccc1` [Test Compound (d), Boc-Asn-D-Trp(CHO)-Phe-OBzl] (Boc-Asn-[dW](For)-Phe-OBn) showed an inhibition at 1 µg/mL of 99%.

The compound `C[C@@H](O)[C@H](NC(=O)OC(C)(C)C)C(=O)N[C@H](Cc1cn(C=O)c2ccccc12)C(=O)N[C@@H](Cc1ccccc1)C(=O)OCc1ccccc1` [Test Compound (g), Boc-Thr-D-Trp(CHO)-Phe-OBzl] (Boc-Thr-[dW](For)-Phe-OBn) returned an inhibition at 1 µg/mL of 100%.

These data come from patent publication US5187156A, “Peptide compounds, processes for preparation thereof and pharmaceutical composition comprising the same” (priority 1988, dated 1993).
